We go through 16 compounds from PMC9662162 (Insect biochemistry and molecular biology, 2022).

Read-outs that look alike come from different tables or passages of the source.

One assay has as its target AnDar-D7L2 (Anopheles darlingi, UniProt B6DDQ8). The assay is described as follows: biochemical. Format: binding. Conditions: for fold difference in binding tightness, serotonin vs tryptamine: ratio of KD values.
For another assay, the target named is T1, AnAtr-D7L1 (Anopheles atroparvus, UniProt A0A182IRF8).
T1 sequence (A0A182IRF8 24-316): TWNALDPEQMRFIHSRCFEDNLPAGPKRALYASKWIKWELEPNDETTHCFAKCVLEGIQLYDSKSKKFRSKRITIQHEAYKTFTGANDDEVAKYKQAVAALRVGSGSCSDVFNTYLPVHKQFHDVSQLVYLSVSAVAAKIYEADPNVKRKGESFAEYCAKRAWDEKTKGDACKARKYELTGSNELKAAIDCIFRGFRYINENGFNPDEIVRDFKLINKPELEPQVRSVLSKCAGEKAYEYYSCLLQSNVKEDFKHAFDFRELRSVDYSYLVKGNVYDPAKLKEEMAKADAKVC
In words: ITC ligand binding to recombinant AnAtr-D7L1. Conditions: for binding observed by ITC (in words): 30°C, 4 μM protein, 40 μM ligand.

A further assay deals with An. gambiae D7L3 (Anopheles gambiae, UniProt A0A1S4HE90). The assay is described as follows: biochemical. The assay is classed as binding.
Chain of An. gambiae D7L3 (A0A1S4HE90 27-354 limits assumed): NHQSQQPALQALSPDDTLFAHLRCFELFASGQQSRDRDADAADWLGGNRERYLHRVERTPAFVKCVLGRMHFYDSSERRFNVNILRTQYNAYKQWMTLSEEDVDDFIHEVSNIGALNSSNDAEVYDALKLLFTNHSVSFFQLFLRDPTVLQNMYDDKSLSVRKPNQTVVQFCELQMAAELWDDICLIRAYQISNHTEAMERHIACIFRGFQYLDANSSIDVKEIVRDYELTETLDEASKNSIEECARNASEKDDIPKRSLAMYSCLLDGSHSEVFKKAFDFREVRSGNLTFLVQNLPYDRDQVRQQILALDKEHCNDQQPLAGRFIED
A further assay relates to AnSt-D7L1. Particulars: ref Alvarenga et al., 2010; cited from earlier work.
For another assay, the target named is T2, D7CQS1 (Culex quinquefasciatus, UniProt Q6TS00).
T2 sequence (Q6TS00 19-161): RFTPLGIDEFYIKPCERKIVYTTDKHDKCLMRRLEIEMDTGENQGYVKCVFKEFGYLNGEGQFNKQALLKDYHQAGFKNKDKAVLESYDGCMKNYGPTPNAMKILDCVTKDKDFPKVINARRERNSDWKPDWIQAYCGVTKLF
The assay is described as follows: ITC serotonin binding to recombinant D7CQS1. Conditions: 30°C, 4 μM protein, 40 μM serotonin.

The next assay has as its target T3, AeD7S1 (Aedes aegypti, UniProt Q8T9T4).
T3 sequence (Q8T9T4 22-148): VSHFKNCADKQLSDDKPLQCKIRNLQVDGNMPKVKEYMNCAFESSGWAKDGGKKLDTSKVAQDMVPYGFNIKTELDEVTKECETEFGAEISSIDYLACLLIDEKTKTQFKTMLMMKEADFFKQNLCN
The assay is described as follows: ITC serotonin binding to recombinant AeD7S1. Conditions: 30°C, 4 μM protein, 40 μM serotonin.

A further assay concerns Platelet-rich plasma. The assay is described as follows: Platelet aggregation assay in platelet-rich plasma. The assay is classed as cell-based, human. Particulars: protein 0.6, 2 and 6 μM.

Chain of AnDar-D7L2 (B6DDQ8 21-317 limits assumed): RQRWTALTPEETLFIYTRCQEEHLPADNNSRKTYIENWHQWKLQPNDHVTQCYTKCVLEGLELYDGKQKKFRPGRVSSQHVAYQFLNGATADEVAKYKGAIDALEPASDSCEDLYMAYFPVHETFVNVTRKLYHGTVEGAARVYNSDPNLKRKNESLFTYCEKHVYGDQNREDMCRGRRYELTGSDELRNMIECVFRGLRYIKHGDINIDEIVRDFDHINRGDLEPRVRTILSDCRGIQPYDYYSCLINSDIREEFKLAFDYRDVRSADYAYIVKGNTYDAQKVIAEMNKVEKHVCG

As for `NCC(O)c1ccc(O)cc1` (racemic) [octopamine, (±)-octopamine], the “binding observed by ITC (in words)” value at AnDar-D7L2 (ITC, 30°C) was “measurable”.

As to `CCCCC[C@H](O)/C=C/C=C\C/C=C\C/C=C\CCCC(=O)O` [15-HETE], the “binding observed by ITC (in words)” value at AnAtr-D7L1 is given as “No binding was detected”.

Take `Nc1ncnc2c1ncn2[C@@H]1O[C@H](COP(=O)(O)OP(=O)(O)O)[C@@H](O)[C@H]1O` [ADP]: the “binding observed by ITC (in words)” value is “inability to bind” on AnDar-D7L2 (ITC, 30°C) and “none” at An. gambiae D7L3 (ITC, 30°C, 4 μM protein, 40 μM ligand).

For the compound `CCCCC/C=C\C[C@@H](O)/C=C/C=C/C=C\[C@@H](O)CCCC(=O)O` [LTB4], the “binding observed by ITC (in words)” value at AnAtr-D7L1 is given as “No binding was detected”; at AnDar-D7L2, “unable to bind”.

Regarding `CCCCC/C=C\C\C=C/C=C/C=C/[C@@H](SC[C@H](NC(=O)CC[C@H](N)C(=O)O)C(=O)NCC(=O)O)[C@@H](O)CCCC(=O)O` [LTC4], the “binding observed by ITC (in words)” value at AnDar-D7L2 is given as “high affinity”.

For the compound `CCCCC/C=C\C\C=C/C=C/C=C/[C@@H](SC[C@H](N)C(=O)NCC(=O)O)[C@@H](O)CCCC(=O)O` [LTD4], the “binding observed by ITC (in words)” value at AnDar-D7L2 is recorded as “high affinity”.

With `CCCCC/C=C\C\C=C/C=C/C=C/[C@@H](SC[C@H](N)C(=O)O)[C@@H](O)CCCC(=O)O` [LTE4], at AnDar-D7L2, the “binding observed by ITC (in words)” value is on record as “high affinity”.

With `CCCCC[C@H](O)/C=C/[C@@H]1[C@@H](C/C=C\CCCC(=O)O)[C@@H](O)C[C@H]1O` [PGF2α], on AnAtr-D7L1, the “binding observed by ITC (in words)” value is “No binding was detected”.

For `CCCCC[C@H](O)/C=C/[C@@H]1[C@@H](C/C=C\CCCC(=O)O)[C@H]2CO[C@@H]1C2` [U46619], the entries for the “binding observed by ITC (in words)” value on AnAtr-D7L1 and on AnDar-D7L2 were “does not bind” and “high affinity”, respectively. The “binding (in words)” value in the assay with AnSt-D7L1 is given as “ability to bind”.

As to `NCCc1ccc(O)c(O)c1` [dopamine], at AnDar-D7L2, the “binding observed by ITC (in words)” value is on record as “measurable”.

`CNC[C@H](O)c1ccc(O)c(O)c1` [epinephrine]: the “binding observed by ITC (in words)” value at AnDar-D7L2 is “No detectable binding”.

What is called Kd is the equilibrium constant for the complex coming apart. For the compound `NCCc1c[nH]cn1` [histamine], the “binding observed by ITC (in words)” value on AnDar-D7L2 was “No detectable binding”. Binding at An. gambiae D7L3 was put at a Kd of 1530 nM.

For the compound `NC[C@H](O)c1ccc(O)c(O)c1` [norepinephrine, L(+)-norepinephrine], the “binding observed by ITC (in words)” value at AnDar-D7L2 (ITC, 30°C) is listed as “measurable”. Also, binding on An. gambiae D7L3 was put at a Kd of 2530 nM.

As for `NCCc1c[nH]c2ccc(O)cc12` [serotonin], the “serotonin binding by ITC (in words)” value on D7CQS1 and on AeD7S1 was “Lack of serotonin binding” each time. Besides, the dissociation constant (Kd) is approximately 3 nM on AnAtr-D7L1, 17 nM on AnDar-D7L2 and 22 nM at An. gambiae D7L3. The “fold difference in binding tightness, serotonin vs tryptamine” value at AnDar-D7L2 (ITC) was 30 fold. Also, the “binding (in words)” value with AnSt-D7L1 is “does not bind”.

Turning to `NCCc1c[nH]c2ccccc12` [tryptamine], at AnAtr-D7L1, the “binding observed by ITC (in words)” value is “equally high affinity”. At AnDar-D7L2, the affinity, expressed as Kd, was 518 nM. Besides, on AnDar-D7L2 (ITC), the “fold difference in binding tightness, serotonin vs tryptamine” value is reported as 30 fold.

On to “AnDar-D7L2: recombinant two-domain D7 long form salivary protein from Anopheles darlingi (EU934268.1)”, for which the “effect on ADP-induced platelet aggregation” value with Platelet-rich plasma (agonist ADP) is “did not inhibit”. For the same compound, the “effect on platelet aggregation induced by U46619” value in the assay on Platelet-rich plasma (agonist U46619) is on record as “inhibits”. Besides, in the assay on Platelet-rich plasma (agonist arachidonic acid), the “effect on platelet aggregation induced by arachidonic acid (AA)” value is on record as “inhibits”. In addition, in the assay with Platelet-rich plasma (agonist epinephrine), the “effect on epinephrine-induced platelet aggregation” value is “did not inhibit”. Also, the “effect on platelet aggregation induced by collagen” value in the assay with Platelet-rich plasma (collagen at low concentrations, 1 min preincubation) is recorded as “inhibits”.
